Results on four compounds are retold here after ChEMBL document CHEMBL1146937, “Nitrobenzylcarbamate prodrugs of cytotoxic acridines for potential use with nitroreductase gene-directed enzyme prodrug therapy” (Bioorg Med Chem Lett, 2006).

Activity calls are given as the source filed them. No cut-off for these calls is given here.

Type in all cases: functional, cell-based
Test [1] concerns HT-29. Description: Antiproliferative activity against HT29 cell line. The following applies: Homo sapiens.
The test system of test [2] is A549. Description: Antiproliferative activity against A549 cell line. The note with it: Homo sapiens.
In test [3] the test system is V79. The test can be described thus: Antiproliferative activity against V79 cell line. The note with it: Cricetulus griseus.
Test [4] has as its system L1210. The test can be described thus: Antiproliferative activity against L1210 cell line. The following applies: Mus musculus.

A word on the IC50: it is the midpoint of a concentration-inhibition curve. A higher IC50 goes with a need for much substance. With `O=C(Nc1ccc2cc3ccccc3nc2c1COC(=O)OCc1ccc([N+](=O)[O-])cc1)OCc1ccc([N+](=O)[O-])cc1`, the values for the IC50 in test [1], in test [2] and in test [3] were 9 µM, greater than 10 µM and greater than 10 µM, respectively.

For `Nc1ccc2cc3ccccc3nc2c1CO`, in test [4], the result was Active.

With `O=C(Nc1ccc2cc3ccccc3nc2c1CO)OCc1ccc([N+](=O)[O-])cc1`, the concentration for half-maximal inhibition (IC50) was 2.5 µM in test [1], 3.5 µM in test [2] and 3.5 µM in test [3].

Consider `CCOC(=O)Nc1ccc2cc3ccccc3nc2c1COC(=O)OCC`, for which the IC50 in test [1] came out at 4.5 µM.
